Laboratory results published in patent US20250221966A1, “RXFP1 AGONISTS” (BRISTOL-MYERS SQUIBB COMPANY, priority 2021, published 2025).
Where two headings read alike, the source gives them in different places.

Biological target: T1, human RXFP1 (Homo sapiens, UniProt Q9HBX9)
T1 construct: expressed in transfected cells
T1 sequence (Q9HBX9 1-757): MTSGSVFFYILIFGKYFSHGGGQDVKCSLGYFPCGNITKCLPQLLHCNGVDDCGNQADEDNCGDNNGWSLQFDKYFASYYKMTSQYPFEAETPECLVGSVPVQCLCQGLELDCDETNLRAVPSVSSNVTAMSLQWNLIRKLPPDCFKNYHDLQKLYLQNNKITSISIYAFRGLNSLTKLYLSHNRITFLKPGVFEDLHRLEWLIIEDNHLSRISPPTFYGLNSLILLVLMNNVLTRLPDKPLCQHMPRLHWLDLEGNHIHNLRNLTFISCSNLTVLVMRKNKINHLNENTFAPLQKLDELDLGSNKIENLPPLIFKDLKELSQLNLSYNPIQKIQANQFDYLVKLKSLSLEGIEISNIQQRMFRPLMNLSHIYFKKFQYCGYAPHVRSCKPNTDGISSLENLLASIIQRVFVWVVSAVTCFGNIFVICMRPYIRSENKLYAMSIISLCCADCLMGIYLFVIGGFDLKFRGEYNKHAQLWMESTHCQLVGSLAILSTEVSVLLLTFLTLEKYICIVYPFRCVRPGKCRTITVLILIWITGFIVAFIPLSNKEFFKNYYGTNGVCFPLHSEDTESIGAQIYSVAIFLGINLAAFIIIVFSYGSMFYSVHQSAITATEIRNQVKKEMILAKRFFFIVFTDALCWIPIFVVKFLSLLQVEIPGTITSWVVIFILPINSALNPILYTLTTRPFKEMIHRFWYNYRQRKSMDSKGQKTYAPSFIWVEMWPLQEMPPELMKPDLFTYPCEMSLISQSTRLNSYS
Assay: RXFP1 cAMP assay (hRXFP1 HEK293 cAMP assay, HTRF)
Type: cell-based
Method in brief: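 In a stable human RXFP1 HEK293 line, compounds acted for 30 min at RT in buffer with 0.5 mM IBMX. HTRF then quantified cellular cAMP.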

[1] = HEK293 cells stably expressing human RXFP1, 30 min at room temperature, read-out: cAMP hRXFP1 HEK293 Assay EC50

Structure (SMILES)	EC50 [1] [nM]	EC50 (cAMP hRXFP1 HEK293 Assay EC50, HEK293 cells stably expressing human RXFP1, 30 min at room temperature) [nM]
COc1ccc(-c2cc(C3=NOC4CC(CO)CC34)ccc2F)cc1C(=O)N[C@H]1[C@@H](C(=O)Nc2ccc(F)c(C(F)(F)F)c2)[C@H]2CC[C@@H]1/C2=C\C1CC1 (stereo partly shown) [compound 954]	5.3	–
CCCOc1c(F)cc(C2=NOC3CC(CO)CC23)cc1C(=O)N[C@H]1[C@@H](C(=O)Nc2ccc(F)c(C(F)(F)F)c2)[C@H]2CC[C@@H]1/C2=C\C1CC1 (stereo partly shown) [compound 782]	3.2	–
CCCCNC(=O)[C@@H]1[C@H](NC(=O)c2cc(C3=NOC4COCC34)ccc2OC)[C@@H]2CC[C@H]1/C2=C/C1CC1 (stereo partly shown) [compound 614]	138	–
COc1ccc(C2=NOC3COCC23)cc1C(=O)N[C@H]1[C@@H](C(=O)NC2CC=CC2)[C@H]2CC[C@@H]1/C2=C\C1CC1 (stereo partly shown) [compound 559]	44.9	–
COc1ccc(C2CC3CNS(=O)(=O)C32)cc1C(=O)N[C@H]1[C@@H](C(=O)Nc2ccc(F)c(C(F)(F)F)c2)[C@H]2CC[C@@H]1/C2=C\C1CC1 (single isomer, unassigned) [compound 732]	99	–
CNC(=O)c1ccc(F)c(-c2ccc(OC)c(C(=O)N[C@H]3[C@@H](C(=O)Nc4ccc(F)c(C(F)(F)F)c4)[C@H]4CC[C@@H]3C4=C(C)C)c2)c1 [compound 151]	240	–
CONC(=O)OC(c1ccc(F)c(-c2ccc(OC)c(C(=O)N[C@@H]3C4CCC(/C4=C/C4CC4)[C@@H]3C(=O)Nc3ccc(F)c(C(F)(F)F)c3)c2)c1)C(F)(F)F (stereo partly shown) [compound 214]	2	–
CCC/C=C1\[C@H]2CC[C@@H]1[C@H](C(=O)Nc1ccc(F)c(C(F)(F)F)c1)[C@@H]2NC(=O)c1cc(C2=NOC3CC(CO)CC23)ccc1OC (stereo partly shown) [compound 800]	1	–
COc1ccc(C2=NOC3CC(C(N)=O)CC23)cc1C(=O)N[C@H]1[C@@H](C(=O)Nc2ccc(F)c(C(F)(F)F)c2)[C@H]2CC[C@@H]1/C2=C\C(F)(F)F (single isomer, unassigned) [compound 482]	6.8	–
COc1ccc(C2=NOC3COCC23)cc1C(=O)N[C@H]1[C@@H](C(=O)N[C@@H]2CCCc3ccccc32)[C@H]2CC[C@@H]1/C2=C\C1CC1 (stereo partly shown) [compound 538]	26.3	–
COc1ccc(C2=NOC3COCC23)cc1C(=O)N[C@H]1[C@@H](C(=O)NCc2ccn(C)n2)[C@H]2CC[C@@H]1/C2=C\C1CC1 (stereo partly shown) [compound 722]	4180	–
COc1c(F)cc(C2=NOC3CC(CO)CC23)cc1C(=O)N[C@H]1[C@@H](C(=O)N[C@H](C)C2(C)CC2)[C@H]2CC[C@@H]1/C2=C\CC(O)C(F)(F)F (stereo partly shown) [compound 832]	3.6	–
COc1ccc(C2=NOC3COCC23)cc1C(=O)N[C@H]1[C@@H](C(=O)NCc2cccc(Cl)c2Cl)[C@H]2CC[C@@H]1/C2=C\C1CC1 (stereo partly shown) [compound 582]	74.9	–
COc1ccc(-c2cc(C(COC(=O)NC3CCC3)C(F)(F)F)ccc2F)cc1C(=O)N[C@H]1[C@@H](C(=O)Nc2ccc(F)c(C(F)(F)F)c2)[C@H]2CC[C@@H]1/C2=C\C1CC1 (stereo partly shown) [compound 879]	0.9	–
COc1ccc(-c2cc([C@H](OC(=O)NC3CC3)C(F)(F)F)ccc2F)cc1C(=O)N[C@H]1[C@@H](C(=O)Nc2ccc(F)c(C(F)(F)F)c2)[C@H]2CC[C@@H]1/C2=C\C1CC(F)(F)C1 [compound 931]	2.5	–
COc1ccc(-c2cncc(C(=O)O)c2)cc1C(=O)N[C@@H]1C2CCC(/C2=C/C(F)(F)F)[C@@H]1C(=O)Nc1ccc(F)c(C(F)(F)F)c1 (stereo partly shown) [compound 288]	127	–
COc1ccc(-c2cc([C@H](OC(=O)NC3CCC3)C(F)(F)F)ccc2F)cc1C(=O)N[C@@H]1C2/C(=C\C(F)(F)F)C(C(O)C2O)[C@@H]1C(=O)Nc1ccc(F)c(C(F)(F)F)c1 (stereo partly shown) [Example 348]	1310	–
COc1ccc(C2=NOC3CC(CO)CC23)cc1C(=O)NC1C2CCC(C2=CC2CC2)C1C(=O)NCC(C)(C)C (stereo not shown) [Example 453]	1.9	–
COc1ccc(-c2cc(NC(=O)CC(=O)O)ccc2F)cc1C(=O)N[C@@H]1C2CCC(/C2=C/c2cnoc2)[C@@H]1C(=O)Nc1ccc(F)c(C(F)(F)F)c1 (stereo partly shown) [compound 175]	17	–
COc1ccc(C2=NOC3COCC23)cc1C(=O)N[C@H]1[C@@H](C(=O)NC(C)(C)c2ccccc2Cl)[C@H]2CC[C@@H]1/C2=C\C1CC1 (stereo partly shown) [compound 669]	416	–
COc1ccc(-c2cc(C(OC(=O)NC34CC(C3)C4)C(F)F)ccc2F)cc1C(=O)N[C@@H]1C2CCC(/C2=C/C2CC2)[C@@H]1C(=O)Nc1ccc(F)c(C(F)(F)F)c1 (stereo partly shown) [compound 232]	1	–
COc1cc(F)c(F)cc1C(=O)N[C@@H]1[C@H](C(=O)Nc2ccc(F)c(C(F)(F)F)c2)[C@@H]2CC[C@H]1C2C(C)C (stereo partly shown) [compound 975]	–	1000
COc1ccc(C2=NO[C@H]3COC[C@@H]23)cc1C(=O)N[C@H]1[C@@H](C(=O)Nc2ccc(F)c(C(F)(F)F)c2)[C@H]2CC[C@@H]1/C2=C\CCC(F)(F)F [compound 830]	3.4	–

Further lines, with some results ahead:

EC50 [1] [nM]	Structure (SMILES)	EC50 (cAMP hRXFP1 HEK293 Assay EC50, HEK293 cells stably expressing human RXFP1, 30 min at room temperature) [nM]
65.3	COc1ccc(C2=NOC(C)(CO)C2)cc1C(=O)N[C@H]1[C@@H](C(=O)Nc2ccc(F)c(C(F)(F)F)c2)[C@H]2CC[C@@H]1C2=CC1CC1 (single isomer, unassigned) [compound 571]	–
2.4	COc1ccc(C2=NOC3CC(C)(CO)CC23)cc1C(=O)N[C@H]1[C@@H](C(=O)Nc2ccc(F)c(C(F)(F)F)c2)[C@H]2CC[C@@H]1/C2=C\C1CC1 (stereo partly shown) [compound 736]	–
37	COc1ccc(C2=NOC(CCO)C2)cc1C(=O)N[C@@H]1C2CCC(/C2=C/C2CC2)[C@@H]1C(=O)Nc1ccc(F)c(C(F)(F)F)c1 (stereo partly shown) [compound 398]	–
33	COc1ccc(C2=NOC(C3(O)CCCCC3)C2)cc1C(=O)N[C@H]1[C@@H](C(=O)Nc2ccc(F)c(C(F)(F)F)c2)[C@H]2CC[C@@H]1/C2=C\C1CC1 (single isomer, unassigned) [compound 549]	–
1600	COc1ccc(N2CC(CN)CC2=O)cc1C(=O)N[C@H]1[C@@H](C(=O)Nc2ccc(F)c(C(F)(F)F)c2)[C@H]2CC[C@@H]1/C2=C\C1CC1 (stereo partly shown) [compound 712]	–
30	COc1ccc(C2=NOC3CCCC23)cc1C(=O)N[C@@H]1C2CCC(/C2=C/C2CC2)[C@@H]1C(=O)Nc1ccc(F)c(C(F)(F)F)c1 (stereo partly drawn) [Example 439, (1R,2S,3R,4R,Z)-7-(cyclopropylmethylene)-N-(4-fluoro-3-(trifluoromethyl)phenyl)-3-(2-methoxy-5-(3a,5,6,6a-tetrahydro-4H-cyclopenta[d]isoxazol-3-yl)benzamido)bicyclo[2.2.1]heptane-2-carboxamide]	–
1.8	COCCOc1ccc(C2=NOC3COCC23)cc1C(=O)N[C@H]1[C@@H](C(=O)Nc2ccc(F)c(C(F)(F)F)c2)[C@H]2CC[C@@H]1/C2=C\C1CC1 (single isomer, unassigned) [Example 452]	–
26	COc1ccc(C2=NOC(CO)C2)cc1C(=O)N[C@@H]1C2CCC(/C2=C/C2CCC2)[C@@H]1C(=O)Nc1ccc(F)c(C(F)(F)F)c1 (single isomer, unassigned) [Example 379]	–
4.7	COc1ccc(C2=NOC3CC(C(O)C(F)(F)F)CC23)cc1C(=O)N[C@H]1[C@@H](C(=O)Nc2ccc(F)c(C(F)(F)F)c2)[C@H]2CC[C@@H]1/C2=C\C1CC1 (stereo partly shown) [compound 856]	–
12	COc1ccc(N2CCCS2(=O)=O)cc1C(=O)N[C@@H]1C2CCC(/C2=C/C2CC2)[C@@H]1C(=O)Nc1ccc(F)c(C(F)(F)F)c1 (stereo partly shown) [compound 372]	–
9	COc1ccc(N2CCCCS2(=O)=O)cc1C(=O)N[C@@H]1C2CCC(/C2=C/C2CC2)[C@@H]1C(=O)Nc1ccc(F)c(C(F)(F)F)c1 (stereo partly shown) [compound 373]	–
